From patent publication US8633168B2, “Inhibitors of S-adenosyl-L-methionine decarboxylase” (Genzyme Corporation, priority 2007, dated 2014)
Read-outs that look alike come from different tables or passages of the source.

Key:
[1] = tested on: Trypanosoma brucei rhodesiense strain STIB 900; experiment: Drug sensitivity assay against T. b. rhodesiense (Alamar blue); type: cell-based
Description: Trypanosoma brucei rhodesiense strain STIB 900, a clone of a population isolated in 1982 from a patient in Tanzania which is known to be susceptible to all currently used drugs was used in these assays. The bloodstream form trypomastigotes of this strain were maintained in supplemented Modified Eagle's Medium according to standard protocols (Hirumi H, Hirumi K, 1989. “Continuous cultivation of Trypanosoma brucei blood stream forms in a medium containing a low concentration of serum protein without feeder cell layers”. J Parasitol 75: 985-9).
(§1) Drug sensitivity assays were performed in sterile 96-well microtiter plates, with or without serial drug dilutions. The compounds were tested at 7 concentrations (drug concentration ranging from 90 μg/ml to 0.123 μg/ml in 3-fold dilutions). The highest concentration for the test compounds was 90 μg/ml. Each drug is tested in duplicate. After 72 hours of incubation the plates were inspected microscopically to assure growth of the controls to determine the minimum inhibitory concentration (MIC), i.e., the lowest drug concentration at which no trypanosomes with normal morphology and motility can be seen compared to control wells. Cell viability is measured by Alamar blue staining and IC50 values were calculated.
(§2) The bloodstream form trypomastigotes of the three strains are maintained according to standard protocols established at STI.
as §1, with “are” for “were”, “The” for “The compounds were tested at 7 concentrations (drug concentration ranging from 90 μg/ml to 0.123 μg/ml in 3-fold dilutions). The”, “is” for “was”
The preliminary screen used T. b. rhodesiense. The compounds were tested at 7 concentrations (drug concentration ranging from 90 μg/ml to 0.123 μg/ml in 3-fold dilutions).

[2] = Permeability through lipid soaked artificial membrane; type: in vitro ADME; conditions: for Perm.: Table 2; for Papp: PAMPA
Protocol: A stock solution for each test compound was prepared at 10 mM in DMSO. These were diluted into phosphate buffer and placed on one side (donor) of a two chamber microtiter plate separated by a lipid soaked membrane. With time, the compound passively diffused across the membrane barrier and the concentration in the second chamber (acceptor) increases. At the end of the experiment, drug concentration was determined in both the donor and acceptor solutions by UV absorbance. The permeability was calculated from the change in concentration, surface area, and incubation time.

[3] = Microsomal stability, rat; type: in vitro ADME; conditions: for Microsomal stability (CL) rat: Table 2; for CLint scaled: Example 12 chart
Protocol: Liver microsomes and hepatocytes represent an in vitro surrogate for assessing the phase I/II metabolic stability of new discovery leads. Following the incubation of the compounds with microsomes or hepatocytes of different species (e.g., human, rat, dog, monkey, mouse), the samples were transferred to 96 well plates for quantitation using LC/MS/MS. The % of compound remaining was measured and used to calculate clearance and % hepatic blood flow.

CYP1A2 = biological target: T1, CYP1A2 (Homo sapiens, UniProt P05177); experiment: Cytochrome P450 inhibition, CYP1A2
T1 sequence (P05177 1-516): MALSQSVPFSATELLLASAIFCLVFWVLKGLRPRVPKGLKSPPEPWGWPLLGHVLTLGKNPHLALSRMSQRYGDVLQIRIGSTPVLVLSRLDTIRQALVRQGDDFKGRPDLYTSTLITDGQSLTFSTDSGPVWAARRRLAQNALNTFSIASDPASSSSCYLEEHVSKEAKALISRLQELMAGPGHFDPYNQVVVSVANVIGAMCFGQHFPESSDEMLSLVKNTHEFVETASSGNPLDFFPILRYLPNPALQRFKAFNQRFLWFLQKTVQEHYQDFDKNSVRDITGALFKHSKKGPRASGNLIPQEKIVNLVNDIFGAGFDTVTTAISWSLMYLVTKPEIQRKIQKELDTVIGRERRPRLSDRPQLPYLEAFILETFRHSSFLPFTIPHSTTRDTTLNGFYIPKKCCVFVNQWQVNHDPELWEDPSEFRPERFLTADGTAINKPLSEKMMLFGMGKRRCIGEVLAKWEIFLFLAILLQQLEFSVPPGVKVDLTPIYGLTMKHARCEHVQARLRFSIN
Description: This cytochrome P450 high throughput IC50 inhibition assay is utilized for screening potential inhibitors of the 5 major human CYP isozyme catalytic activities (CYP3A4, 2D6, 2C9, 2C19, and 1A2).

[4] = Plasma protein binding (RED), human; type: in vitro ADME
Protocol: (§3) Rapid Equilibrium Dialysis device (RED) is a 96-well formatted dialysis with disposable inserts and Teflon base design providing short incubation time. The membrane in RED physically separates of bound and free drug. After 4 hr incubation at 37° C., drug concentrations at both plasma (e.g., human, rat, dog, monkey, mouse) and pH 7.4 PBS buffer sides was quantitated by LC/MS/MS and % bound drug in plasma was calculated.

[5] = Plasma protein binding (RED), mouse; type: in vitro ADME
Protocol: as §3

Mouse PK study = type: in vivo; conditions: for t/2 in mouse: Table 3
Protocol: The rodent PK study designs provide reliable estimation of PK parameters using fewer animals. Often two routes, PO and IV, were included in the rodent PK study protocols with three subjects in each dosing group (often PO at 10 mg/kg and IV at 3 mg/kg).

T. b. brucei = experiment: Cell-based screening against T. b. brucei; design: species or system Trypanosoma brucei brucei; conditions: for IC50: Screening Data, two values per compound
Protocol: as §2
as §1, with “are” for “were”, “The” for “The compounds were tested at 7 concentrations (drug concentration ranging from 90 μg/ml to 0.123 μg/ml in 3-fold dilutions). The”, “is” for “was”
Active compounds (IC50<0.2 μg/ml) are tested against the Trypanosoma brucei gambiense STIB 930 and the multi-drug resistant T. b. brucei STIB 950 following the same protocol as described above.
This example provides data relating to the biological screening results. MDL 73811 and selected new compounds 1-7 were tested against a variety of cell-based organisms and enzymes and the IC50 measured. In vitro ADME profiles were also obtained. Solubility, permeability, microsomal/hepatocyte stability, cychrome P450 inhibition and plasma protein binding characteristics were probed for each of the compounds. The methodology for these tests are described in previous paragraphs. The results are summarized in the following 2 charts.

T. cruzi = experiment: Cell-based screening against T. cruzi; conditions: Trypanosoma cruzi; Screening Data
Schistosomes adult = experiment: Screening against Schistosomes, adult; type: cell-based; conditions: Screening Data
Schistosomes lavae = experiment: Screening against Schistosomes, larvae; type: cell-based; conditions: Screening Data
[6] = Screening Data, read-out: IC50 T. b. rhod.
[7] = Table 1, 72 hours incubation, Alamar blue, read-out: IC50 against T. b. rhodesiense (ug/mL) by STI
[8] = Table 2, read-out: IC50 against T. b. rhodesiense (ug/mL) by STI
[9] = Table 3, read-out: IC50 against T. brucei rhodesiense
[10] = plasma, pH 7.4, Example 12 chart, human
[11] = plasma, pH 7.4, Example 12 chart, mouse
[12] = read-out: CYP IC50 1A2, Example 12 chart

| SMILES | IC50 [1, 6] [nM] | IC50 [1, 7] [µg/mL] | IC50 [1, 8] [µg/mL] | Perm. [2] | Microsomal stability (CL) rat [3] [mL/min/kg] | CLint scaled ([3]; liver microsomes) [mL/min/kg] | Plasma Protein Binding % human ([4]; Table 2, human plasma) [%] | fraction unbound at 4 hr [4, 10] | Plasma protein binding (%) mouse ([5]; Table 2, mouse plasma) [%] | fraction unbound at 4 hr [5, 11] | IC50 (T. cruzi) [µM] | IC50 (Schistosomes adult) [µM] | logD (LogD) | IC50 [1, 9] [µg/mL] | t/2 in mouse (Mouse PK study) [h] | IC50 (T. b. brucei; Trypanosoma brucei) [µM] | IC50 (Schistosomes lavae) [µM] | IC50 (CYP1A2) [µM] | IC50 (CYP1A2; [12]) [µM] | Plasma Protein Binding % human ([4]; Example 12 chart, human) [%] | further results |
| --- | --- | --- | --- | --- | --- | --- | --- | --- | --- | --- | --- | --- | --- | --- | --- | --- | --- | --- | --- | --- | --- |
| CN(C/C=C\CN)C[C@H]1O[C@@H](n2cnc3c(N)ncnc32)[C@H](F)[C@@H]1O (stereo in doubt) [Compound 1] | 1390 | 0.489 | 0.489 | 0.00 10-6 cm/s | <11 | < 7.7 | 23.3 | 0.767 | 47.7 | 0.523 | > 85 | > 10 | -1.3 | 0.489 | 1.93 | > 14 | > 10 | – | – | – | IC50 (CYP1A2; human, probe fluorometric substrates (not named)): > 5 µM |
| Cc1nc2c(N)ncnc2n1[C@@H]1O[C@H](CN(C)C/C=C\CN)[C@@H](O)[C@H]1O (stereo in doubt) [Compound 4] | 1 | 0.0004 | 0.0004 | 0.22 10-6 cm/s | <11 | < 7.7 | – | – | – | – | > 85 | > 10 | – | 0.0004 | 7.43 | 0.027 | > 10 | > 5 | > 5 | 41.2 | IC50 ([1]; read-out: IC50 against T. b. rhodesiense): 0.0004 µg/mL; Papp ([2]; Example 12 chart): 0.22 ×10⁻⁶ cm/s; protein binding relative to MDL73811 ([4]; compared with MDL73811 (human and mouse plasma in Table 2)): approximately half; fraction unbound at 4 hr ([4]; pH 7.4, Table 2, human plasma): 0.588; Plasma protein binding (%) mouse ([5]; Example 12 chart, mouse): 35.7%; fraction unbound at 4 hr ([5]; pH 7.4, Table 2, mouse plasma): 0.643; t/2, fold greater than that for MDL-73811 (Mouse PK study; vs MDL-73811): ~3 fold; potency against T. b. brucei, fold greater than that of MDL73811 (T. b. brucei; vs MDL73811): 10 fold; logD (LogD; Example 12 chart): −1.4 |
| CN(C/C=C\CN)CC1OC(n2cnc3c(N)ncnc32)C(O)C1O (centres unmarked) [MDL-73811, reference compound] | 11 | 0.004 | 0.004 | 0.13 10-6 cm/s | <11 | – | – | – | – | – | 19.4 | > 10 | – | 0.004 | 2.48 | 0.171 | > 10 | > 5 | > 5 | 72.9 | Papp ([2]; Example 12 chart): 1.1 ×10⁻⁶ cm/s; CLint scaled ([3]; microsomes): < 7.7 mL/min/kg; fraction unbound ([4]; pH 7.4, Table 2, human plasma): 0.271; Plasma protein binding (%) mouse ([5]; Example 12 chart, mouse): 69.8%; fraction unbound ([5]; pH 7.4, Table 2, mouse plasma): 0.302; IC50 (T. b. brucei): 0.257 µM |

Further lines, with some results ahead:

| IC50 [1, 6] [nM] | IC50 [1, 7] [µg/mL] | IC50 [1, 8] [µg/mL] | Perm. [2] | Microsomal stability (CL) rat [3] [mL/min/kg] | CLint scaled ([3]; liver microsomes) [mL/min/kg] | Plasma Protein Binding % human ([4]; Table 2, human plasma) [%] | fraction unbound at 4 hr [4, 10] | Plasma protein binding (%) mouse ([5]; Table 2, mouse plasma) [%] | fraction unbound at 4 hr [5, 11] | IC50 (T. cruzi) [µM] | IC50 (Schistosomes adult) [µM] | logD (LogD) | SMILES | IC50 [1, 9] [µg/mL] | t/2 in mouse (Mouse PK study) [h] | IC50 (T. b. brucei; Trypanosoma brucei) [µM] | IC50 (Schistosomes lavae) [µM] | IC50 (CYP1A2) [µM] | IC50 (CYP1A2; [12]) [µM] | Plasma Protein Binding % human ([4]; Example 12 chart, human) [%] | further results |
| --- | --- | --- | --- | --- | --- | --- | --- | --- | --- | --- | --- | --- | --- | --- | --- | --- | --- | --- | --- | --- | --- |
| 2590 | 0.908 | 0.908 | 0.00 10-6 cm/s | <11 | < 7.7 | 32.2 | 0.678 | 37.2 | 0.628 | > 85 | > 10 | -1.2 | CN(C/C=C\CN)C[C@H]1O[C@@H](n2cnc3c(N)ncnc32)[C@@H](F)[C@@H]1O [Compound 2] | – | – | > 14 | > 10 | > 5 | > 5 | – | – |
| 1760 | 0.676 | 0.676 | 0.36 10-6 cm/s | <11 | < 7.7 | – | – | 42.2 | 0.578 | > 85 | > 10 | – | CN(C/C=C\CN)C[C@H]1O[C@@H](n2cnc3c(N)nc(Cl)nc32)[C@H](O)[C@@H]1O [Compound 3] | – | 1.66 | 8.57 | > 10 | > 5 | > 5 | 39 | Permeability ([2]; Example 12 chart): 0.36 10−6 cm/sec; fraction unbound at 4 hr ([4]; pH 7.4, Table 2, human plasma): 0.61; IC50 (T. b. brucei): 5.96 µM |
